Experiment [1] deals with Signal transducer and activator of transcription 1-alpha/beta (Homo sapiens, UniProt P42224). Kind of experiment: STAT3 blockade with qPCR and toxicity readouts – cell-based, STAT1 panel, cytotoxicity, late-stage follow-up, panel member STAT1 Inhibition (AID 2078). On the technique in general: In qPCR the cycle at which signal appears reflects the starting amount.
In experiment [2] the target is Signal transducer and activator of transcription 3 (Homo sapiens, UniProt P40763). Kind of experiment: STAT3 blockade with qPCR and toxicity readouts – cell-based, STAT1 panel, cytotoxicity, late-stage follow-up, panel member STAT3 Inhibition (AID 2078).
Experiment [3] concerns the target Peroxisome proliferator-activated receptor gamma (Homo sapiens, UniProt P37231). Nature of the experiment: PPARg transcriptional activation, reporter cells – cell-based, luminescence, assay provider, dose response (AID 504447). In kind it is functional.
The target of experiment [4] is T1, Dual specificity protein phosphatase 3 (Homo sapiens, UniProt P51452). Kind of experiment: VHR1 phosphatase inhibitors, primary screen, biochemical, absorbance, uHTS (AID 1654).
T1 sequence (P51452 whole entry): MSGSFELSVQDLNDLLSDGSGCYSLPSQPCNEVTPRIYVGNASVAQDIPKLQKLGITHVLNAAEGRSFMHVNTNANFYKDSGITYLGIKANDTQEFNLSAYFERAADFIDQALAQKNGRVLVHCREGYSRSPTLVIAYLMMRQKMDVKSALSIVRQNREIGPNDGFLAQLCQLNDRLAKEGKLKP
The target in experiment [5] is T1, Dual specificity protein phosphatase 3. Kind of experiment: VHR1 phosphatase inhibitors, biochemical (AID 1878).
In experiment [6] the target is Dual specificity protein phosphatase 6 (Rattus norvegicus, UniProt Q64346). Kind of experiment: inhibition of rat DUSP6 enzyme activity – biochemical, in vitro, primary screen (AID 425).
Experiment [7] has as its target T2, Tyrosine-protein phosphatase non-receptor type 7 (Homo sapiens, UniProt P35236).
T2 sequence (P35236 whole entry): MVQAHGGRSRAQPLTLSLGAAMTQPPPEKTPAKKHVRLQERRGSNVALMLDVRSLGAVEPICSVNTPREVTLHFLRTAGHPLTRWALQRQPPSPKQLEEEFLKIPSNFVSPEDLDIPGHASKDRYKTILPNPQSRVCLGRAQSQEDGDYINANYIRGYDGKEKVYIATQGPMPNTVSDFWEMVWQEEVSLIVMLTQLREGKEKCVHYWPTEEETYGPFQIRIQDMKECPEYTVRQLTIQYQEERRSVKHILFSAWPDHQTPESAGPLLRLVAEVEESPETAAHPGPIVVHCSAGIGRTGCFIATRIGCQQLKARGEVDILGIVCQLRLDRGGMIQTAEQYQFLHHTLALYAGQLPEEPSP
Nature of the experiment: SAR analysis of chemical inhibitors of HePTP using a Fluorescent assay - Set 2. [Related pubchem assays (depositor defined):AID1059, AID1077, AID1661, AID2085, AID521]. In kind it is functional.

For experiment [8], the target named is T1, Dual specificity protein phosphatase 3. Kind of experiment: SAR VHR1 Fluorescent Assay for In Vitro dose response studies Set 2. [Related pubchem assays (depositor defined):AID1654, AID1661, AID1878]. The class given is functional.
Experiment [9] deals with T3, Kappa-type opioid receptor (Homo sapiens, UniProt P41145). Nature of the experiment: kappa opioid receptor blockers, cell-based, luminescence, beta-arrestin, SAR follow-up (AID 2285). The class given is functional.
T3 sequence (P41145 whole entry): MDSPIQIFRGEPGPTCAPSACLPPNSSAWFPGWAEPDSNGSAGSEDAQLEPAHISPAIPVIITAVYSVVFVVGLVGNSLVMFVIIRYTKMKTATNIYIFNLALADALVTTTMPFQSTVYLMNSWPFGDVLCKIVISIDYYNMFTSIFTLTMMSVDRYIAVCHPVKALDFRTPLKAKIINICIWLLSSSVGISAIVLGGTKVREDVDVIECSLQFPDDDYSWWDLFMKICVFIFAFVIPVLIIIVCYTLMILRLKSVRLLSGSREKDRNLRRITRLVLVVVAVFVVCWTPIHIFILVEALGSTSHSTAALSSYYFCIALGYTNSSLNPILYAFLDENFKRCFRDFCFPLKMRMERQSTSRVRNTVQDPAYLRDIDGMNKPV
Experiment [10] concerns the target T4, Delta-type opioid receptor (Homo sapiens, UniProt P41143). Nature of the experiment: delta opioid receptor blockers – image-based, SAR follow-up (AID 2357). In kind it is functional.
Experiment [11] addresses T5, Mu-type opioid receptor (Homo sapiens, UniProt P35372). Kind of experiment: mu opioid receptor blockers – image-based, SAR follow-up (AID 2420).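 Also: compounds added before stimulation of receptor with agonist DAMGO.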 In kind it is functional.
The target of experiment [12] is T4, Delta-type opioid receptor. Nature of the experiment: DOR agonists, SAR follow-up, image-based (AID 2370). The class given is functional.
The target of experiment [13] is T5, Mu-type opioid receptor. Kind of experiment: mu opioid receptor activators, image-based, SAR follow-up (AID 2352). In kind it is functional.
For experiment [14], the target named is T3, Kappa-type opioid receptor. Nature of the experiment: kappa opioid receptor activation potency – imaging, image-based, SAR follow-up (AID 2359). In kind it is functional.
Experiment [15] addresses T3, Kappa-type opioid receptor. Kind of experiment: kappa opioid receptor blockers, image-based, SAR follow-up (AID 2348). In kind it is functional.
Experiment [16] deals with Sphingosine 1-phosphate receptor 1 (Homo sapiens, UniProt P21453). Nature of the experiment: Fluorescence-based counterscreen assay for S1P4 agonists: Cell-based dose response high throughput screening assay to identify agonists of the Sphingosine 1-Phosphate Receptor 1 (S1P1). [Related pubchem assays (depositor defined):AID1509, AID1523, AID1801, AID463107, AID463118, AID463119, AID463122, AID463123, AID463129, AID463225, AID504400, AID504460]. In kind it is functional.
Chain of Sphingosine 1-phosphate receptor 1 (P21453 whole entry): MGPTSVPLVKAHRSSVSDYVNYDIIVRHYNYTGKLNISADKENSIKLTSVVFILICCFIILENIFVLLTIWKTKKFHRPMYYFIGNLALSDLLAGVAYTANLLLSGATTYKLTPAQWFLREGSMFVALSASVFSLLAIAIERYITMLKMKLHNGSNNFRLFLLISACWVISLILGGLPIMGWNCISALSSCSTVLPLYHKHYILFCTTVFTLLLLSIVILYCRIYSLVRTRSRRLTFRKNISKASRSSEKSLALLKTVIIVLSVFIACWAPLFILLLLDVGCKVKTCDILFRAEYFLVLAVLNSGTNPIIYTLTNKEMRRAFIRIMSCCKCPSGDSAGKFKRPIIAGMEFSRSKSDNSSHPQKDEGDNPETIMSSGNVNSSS

Experiment [17] deals with T6, Sphingosine 1-phosphate receptor 4 (Homo sapiens, UniProt O95977).
T6 sequence (O95977 whole entry): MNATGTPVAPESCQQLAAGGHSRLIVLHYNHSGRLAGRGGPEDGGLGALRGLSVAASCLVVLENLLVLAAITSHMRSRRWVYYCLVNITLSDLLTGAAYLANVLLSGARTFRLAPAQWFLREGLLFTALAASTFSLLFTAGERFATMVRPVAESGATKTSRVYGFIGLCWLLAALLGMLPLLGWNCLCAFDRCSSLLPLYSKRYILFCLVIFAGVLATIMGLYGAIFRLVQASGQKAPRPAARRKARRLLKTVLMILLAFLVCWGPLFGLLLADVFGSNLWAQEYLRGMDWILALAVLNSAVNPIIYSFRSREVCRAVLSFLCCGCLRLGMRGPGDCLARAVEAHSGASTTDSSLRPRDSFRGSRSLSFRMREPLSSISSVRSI
Nature of the experiment: Fluorescence dose response cell-based high throughput screening assay for agonists of the Sphingosine 1-Phosphate Receptor 4 (S1P4). [Related pubchem assays: 1509 (Primary screen.), 1523 (Confirmation screen in triplicates.)]. In kind it is functional.

Experiment [18] concerns the target Voltage-dependent T-type calcium channel subunit alpha-1H (Homo sapiens, UniProt O95180). Nature of the experiment: human CACNA1H calcium influx blockade – cell-based, synthetic library set 2, HEK293 HH8, Fluo-4, SAR follow-up (AID 493023). In kind it is functional.
Experiment [19] concerns the target Sphingosine 1-phosphate receptor 5 (Homo sapiens, UniProt Q9H228). Kind of experiment: Late stage counterscreen assay for S1P4 antagonists: Fluorescence dose response cell-based screening assay for antagonists of the Sphingosine 1-Phosphate Receptor 5 (S1P5). [Related pubchem assays (depositor defined):AID1510, AID1524, AID1692, AID1853, AID2332, AID489009, AID489017]. In kind it is functional.

Experiment [20] addresses Sphingosine 1-phosphate receptor 2 (Homo sapiens, UniProt O95136). Nature of the experiment: Late stage counterscreen assay for S1P4 antagonists: Fluorescence dose response cell-based screening assay for antagonists of the Sphingosine 1-Phosphate Receptor 2 (S1P2). [Related pubchem assays (depositor defined):AID1510, AID1524, AID1692, AID1853, AID2332, AID489009, AID489017]. The class given is functional.

The target of experiment [21] is Sphingosine 1-phosphate receptor 3 (Homo sapiens, UniProt Q99500). Kind of experiment: Late stage counterscreen assay for S1P4 antagonists: Fluorescence dose response cell-based screening assay for antagonists of the Sphingosine 1-Phosphate Receptor 3 (S1P3). [Related pubchem assays (depositor defined):AID1510, AID1524, AID1692, AID1853, AID2332, AID489009, AID489017]. In kind it is functional.

Molecules are shown by their SMILES. The source made the active and inactive calls. Some results are limits rather than exact numbers.

T4 sequence (P41143 whole entry): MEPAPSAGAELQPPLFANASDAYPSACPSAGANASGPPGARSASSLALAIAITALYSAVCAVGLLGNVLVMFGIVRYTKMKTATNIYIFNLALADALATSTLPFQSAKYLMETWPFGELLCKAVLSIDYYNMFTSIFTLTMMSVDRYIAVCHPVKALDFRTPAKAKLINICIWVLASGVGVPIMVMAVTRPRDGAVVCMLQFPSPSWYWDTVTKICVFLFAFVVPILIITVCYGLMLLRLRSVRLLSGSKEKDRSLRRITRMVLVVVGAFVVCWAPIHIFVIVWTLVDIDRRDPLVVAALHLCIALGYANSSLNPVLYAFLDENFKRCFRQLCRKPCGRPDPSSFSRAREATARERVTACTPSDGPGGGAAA
T5 sequence (P35372 whole entry): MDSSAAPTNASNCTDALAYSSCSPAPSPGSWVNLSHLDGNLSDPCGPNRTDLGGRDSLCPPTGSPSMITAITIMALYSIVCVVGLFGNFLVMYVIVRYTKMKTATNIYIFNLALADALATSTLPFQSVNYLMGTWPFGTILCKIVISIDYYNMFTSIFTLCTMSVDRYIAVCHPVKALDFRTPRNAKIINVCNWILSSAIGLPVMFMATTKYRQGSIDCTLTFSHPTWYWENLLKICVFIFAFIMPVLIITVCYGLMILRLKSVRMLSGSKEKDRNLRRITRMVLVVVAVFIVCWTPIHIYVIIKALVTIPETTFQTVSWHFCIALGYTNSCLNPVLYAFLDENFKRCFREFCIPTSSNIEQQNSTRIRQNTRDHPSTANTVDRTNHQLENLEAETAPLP
Chain of Peroxisome proliferator-activated receptor gamma (P37231 whole entry): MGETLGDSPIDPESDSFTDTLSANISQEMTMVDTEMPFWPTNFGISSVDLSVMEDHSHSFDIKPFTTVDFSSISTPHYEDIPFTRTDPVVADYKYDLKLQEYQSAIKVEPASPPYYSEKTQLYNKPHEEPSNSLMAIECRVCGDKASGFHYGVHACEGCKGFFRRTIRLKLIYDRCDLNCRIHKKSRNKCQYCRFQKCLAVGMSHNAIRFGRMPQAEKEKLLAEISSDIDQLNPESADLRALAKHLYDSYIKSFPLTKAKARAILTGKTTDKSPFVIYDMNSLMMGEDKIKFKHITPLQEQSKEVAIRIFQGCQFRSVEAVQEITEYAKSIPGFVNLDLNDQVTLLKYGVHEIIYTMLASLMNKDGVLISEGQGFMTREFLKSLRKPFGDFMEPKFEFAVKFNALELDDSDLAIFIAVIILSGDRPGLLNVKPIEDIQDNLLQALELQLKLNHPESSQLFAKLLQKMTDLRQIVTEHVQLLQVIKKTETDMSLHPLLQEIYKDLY
Chain of Voltage-dependent T-type calcium channel subunit alpha-1H (O95180 whole entry): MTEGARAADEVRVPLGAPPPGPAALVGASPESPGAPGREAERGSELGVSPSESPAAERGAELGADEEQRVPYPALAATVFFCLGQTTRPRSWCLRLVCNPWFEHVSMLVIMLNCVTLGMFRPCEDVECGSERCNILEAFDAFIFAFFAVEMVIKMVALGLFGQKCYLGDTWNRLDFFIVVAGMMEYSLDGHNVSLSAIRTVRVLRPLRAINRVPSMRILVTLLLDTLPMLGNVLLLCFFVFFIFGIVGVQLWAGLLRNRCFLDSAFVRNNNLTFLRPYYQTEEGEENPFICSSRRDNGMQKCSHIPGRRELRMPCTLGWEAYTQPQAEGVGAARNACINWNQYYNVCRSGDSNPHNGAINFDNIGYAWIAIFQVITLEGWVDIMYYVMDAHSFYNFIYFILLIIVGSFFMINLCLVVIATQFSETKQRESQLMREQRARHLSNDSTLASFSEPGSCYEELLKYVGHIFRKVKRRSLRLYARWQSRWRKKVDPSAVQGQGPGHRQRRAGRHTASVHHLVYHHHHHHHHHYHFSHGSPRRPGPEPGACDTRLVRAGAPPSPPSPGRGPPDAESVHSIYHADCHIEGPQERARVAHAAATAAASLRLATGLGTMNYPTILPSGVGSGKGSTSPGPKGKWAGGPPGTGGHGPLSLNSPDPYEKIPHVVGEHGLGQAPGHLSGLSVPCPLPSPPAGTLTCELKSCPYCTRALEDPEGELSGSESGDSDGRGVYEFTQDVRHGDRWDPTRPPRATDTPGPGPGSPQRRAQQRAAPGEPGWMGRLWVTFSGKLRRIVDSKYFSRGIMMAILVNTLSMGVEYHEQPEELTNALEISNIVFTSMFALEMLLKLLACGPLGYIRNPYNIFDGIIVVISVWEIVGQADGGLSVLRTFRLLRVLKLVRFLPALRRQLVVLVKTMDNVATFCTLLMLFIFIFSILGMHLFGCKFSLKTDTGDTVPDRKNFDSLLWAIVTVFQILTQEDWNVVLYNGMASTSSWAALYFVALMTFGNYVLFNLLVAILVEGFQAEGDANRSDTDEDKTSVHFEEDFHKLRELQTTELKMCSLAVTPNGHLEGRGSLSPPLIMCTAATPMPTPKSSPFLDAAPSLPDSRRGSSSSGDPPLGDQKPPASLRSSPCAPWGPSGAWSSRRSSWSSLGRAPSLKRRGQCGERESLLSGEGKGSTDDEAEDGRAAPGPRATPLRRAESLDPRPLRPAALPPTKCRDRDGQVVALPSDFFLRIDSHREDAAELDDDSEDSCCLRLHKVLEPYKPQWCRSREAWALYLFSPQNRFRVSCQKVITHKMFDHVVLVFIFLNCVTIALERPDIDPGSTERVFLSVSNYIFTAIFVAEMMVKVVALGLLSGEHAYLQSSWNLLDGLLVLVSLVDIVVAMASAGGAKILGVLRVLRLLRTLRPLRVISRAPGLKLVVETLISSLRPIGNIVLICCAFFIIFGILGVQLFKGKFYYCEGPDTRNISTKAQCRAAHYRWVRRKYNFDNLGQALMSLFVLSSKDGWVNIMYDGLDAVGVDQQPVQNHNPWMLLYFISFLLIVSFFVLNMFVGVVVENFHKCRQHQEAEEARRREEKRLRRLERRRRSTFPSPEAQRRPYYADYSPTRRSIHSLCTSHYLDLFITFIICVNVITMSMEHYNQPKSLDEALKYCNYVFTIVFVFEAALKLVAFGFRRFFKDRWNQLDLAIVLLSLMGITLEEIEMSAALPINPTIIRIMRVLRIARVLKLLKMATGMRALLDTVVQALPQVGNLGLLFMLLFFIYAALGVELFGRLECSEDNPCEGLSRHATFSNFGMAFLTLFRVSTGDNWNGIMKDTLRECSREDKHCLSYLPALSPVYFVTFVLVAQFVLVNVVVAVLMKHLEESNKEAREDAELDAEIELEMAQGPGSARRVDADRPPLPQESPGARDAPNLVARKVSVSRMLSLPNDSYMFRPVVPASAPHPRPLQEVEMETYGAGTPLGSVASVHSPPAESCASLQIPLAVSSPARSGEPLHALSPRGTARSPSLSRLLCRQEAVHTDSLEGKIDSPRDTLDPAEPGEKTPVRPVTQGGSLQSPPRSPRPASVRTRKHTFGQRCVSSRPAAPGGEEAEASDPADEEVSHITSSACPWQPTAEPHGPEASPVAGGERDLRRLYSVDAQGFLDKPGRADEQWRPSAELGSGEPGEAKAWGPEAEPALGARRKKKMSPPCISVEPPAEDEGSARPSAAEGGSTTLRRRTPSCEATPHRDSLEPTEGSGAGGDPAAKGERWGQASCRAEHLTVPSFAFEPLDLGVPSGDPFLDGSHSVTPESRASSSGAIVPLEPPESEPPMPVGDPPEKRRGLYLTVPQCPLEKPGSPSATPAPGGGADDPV
Chain of Sphingosine 1-phosphate receptor 2 (O95136 whole entry): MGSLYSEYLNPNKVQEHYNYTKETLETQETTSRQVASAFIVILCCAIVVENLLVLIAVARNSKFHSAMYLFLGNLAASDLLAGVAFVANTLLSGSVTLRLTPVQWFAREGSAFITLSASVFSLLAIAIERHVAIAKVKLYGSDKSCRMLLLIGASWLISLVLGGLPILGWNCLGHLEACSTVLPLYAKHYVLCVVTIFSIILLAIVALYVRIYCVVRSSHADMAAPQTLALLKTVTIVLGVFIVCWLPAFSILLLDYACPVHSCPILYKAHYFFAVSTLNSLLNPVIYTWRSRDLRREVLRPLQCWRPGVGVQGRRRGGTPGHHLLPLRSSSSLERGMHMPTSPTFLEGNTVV

`c1ccc(Cc2nc(N3CCC(Cc4ccccc4)CC3)c3c4c(sc3n2)CCCC4)cc1`: the IC50 in experiment [1] and in experiment [2] was > 55.7 µM (inactive) each time.

Consider `O=C(Nc1ccccc1Cl)C(=O)c1cn(CC(=O)N2CCOCC2)c2ccccc12`, for which the half-maximal effective concentration (EC50) in [3] is 2 µM (active).

On to `O=C(O)C1CCC(N2C(=O)c3c(Cl)c(Cl)c(Cl)c(Cl)c3C2=O)CC1` (stereo unspecified), for which the half-inhibitory concentration (IC50) in experiment [4] was 5.1 µM (active); in experiment [5], 3.6 µM (active); in experiment [6], 113 µM (not active).

As to `Cc1ccc(NC(=S)NC(NC(=O)OCc2ccccc2)C(Cl)(Cl)Cl)cc1` (stereo unspecified), the IC50 in experiment [7] is > 100 µM (inactive); in [8] it was > 100 µM (inactive); in experiment [9], > 10 µM (inactive); in experiment [10] it was > 32 µM (inactive); on Mu-type opioid receptor [11] it was > 32 µM (inactive); in experiment [15], > 32 µM (inactive). Also, the EC50 (in experiment [12]; at Mu-type opioid receptor [13]; in [14]) was > 32 µM (inactive) each time.

As for `COc1cccc(C2CN(c3ccc(F)cc3F)N=C2c2cccs2)c1OC` (stereo unspecified), the concentration for a half-maximal effect (EC50) in experiment [16] was 7.49 µM (active); in experiment [17], 11.1 µM (not active).

On to `CC(C)(C)CCN1CCC[C@H](NC(=O)COc2ccccc2Cl)C1`, for which the EC50 in [18] is 10 µM (active).

Turning to `Cc1cccc(C)c1NC(=O)c1ccc(-c2cc(Cl)ccc2Cl)o1`, the IC50 in experiment [19] was > 25 µM (inactive); in [20] it was 7.88 µM (active); in experiment [21] it was 19.5 µM (inactive).

By IC50 is commonly meant the point on the concentration scale where inhibition reaches its midpoint. What is called EC50 is the concentration at which the effect is half-maximal.

The record behind these values is ChEMBL document CHEMBL1201862, “PubChem BioAssay data set” (2004).
